Results: PubChem BioAssay AID330 (DTP/NCI, 2004)
Where “and” joins values, the source holds several entries; their conditions need not be identical. Equal values may be shown once. Inconclusive results and toxic doses are left out. The calls were made as follows: active = survival T/C of 150% or more; inactive = T/C below 125% in these data.

Tested on: P388 leukemia ip, CD2F1 mice, survival T/C
Assay: NCI In Vivo Anticancer Drug Screen. Data for tumor model P388 Leukemia (intraperitoneal) in CD2F1 (CDF1) mice
Conditions: endpoint: median survival time, higher = longer survival
Outline: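 Mice carrying the transplanted tumor received test compound or vehicle. Survival was recorded in each group, and the value is the treated-group measurement divided by that of the vehicle-treated control group.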

[1] = dose: 60.0 mg/kg/injection, schedule: Q01DX005 (ip), vehicle: saline
[2] = dose: 120.0 mg/kg/injection, schedule: Q01DX005 (ip), vehicle: saline
[3] = dose: 240.0 mg/kg/injection, schedule: Q01DX005 (ip), vehicle: saline
[4] = dose: 60.0 mg/kg/injection, schedule: Q01DX005 (ip), vehicle: saline with Tween-80
[5] = dose: 120.0 mg/kg/injection, schedule: Q01DX005 (ip), vehicle: saline with Tween-80
[6] = dose: 240.0 mg/kg/injection, schedule: Q01DX005 (ip), vehicle: saline with Tween-80
[7] = dose: 25.0 mg/kg/injection, schedule: Q04DX003 (ip), vehicle: saline with Tween-80
[8] = dose: 50.0 mg/kg/injection, schedule: Q04DX003 (ip), vehicle: saline with Tween-80
[9] = dose: 50.0 mg/kg/injection, schedule: Q01DX009 (ip), vehicle: saline
[10] = dose: 100.0 mg/kg/injection, schedule: Q01DX009 (ip), vehicle: saline
[11] = dose: 200.0 mg/kg/injection, schedule: Q01DX009 (ip), vehicle: saline
[12] = dose: 100.0 mg/kg/injection, schedule: Q01DX009 (ip), vehicle: saline with Tween-80
[13] = dose: 200.0 mg/kg/injection, schedule: Q01DX009 (ip), vehicle: saline with Tween-80
[14] = dose: 50.0 mg/kg/injection, schedule: Q01DX009 (ip), vehicle: Klucel (hydroxypropylcellulose) (HPC)
[15] = dose: 100.0 mg/kg/injection, schedule: Q01DX009 (ip), vehicle: Klucel (hydroxypropylcellulose) (HPC)
[16] = dose: 200.0 mg/kg/injection, schedule: Q01DX009 (ip), vehicle: Klucel (hydroxypropylcellulose) (HPC)
[17] = dose: 60.0 mg/kg/injection, schedule: Q01DX005 (ip), vehicle: Klucel (hydroxypropylcellulose) (HPC)
[18] = dose: 120.0 mg/kg/injection, schedule: Q01DX005 (ip), vehicle: Klucel (hydroxypropylcellulose) (HPC)
[19] = dose: 100.0 mg/kg/injection, schedule: Q04DX003 (ip), vehicle: saline with Tween-80

Measured: T/C

CC(O)C1OC(O)C2OC(C)(C)OC12 (stereo not given)
inactive: [1] 98 % of control | [2] 95 % of control | [3] 98 % of control

Cc1ccc(OP(=O)(Oc2ccc(C)cc2)Oc2ccc(C)cc2)cc1.Cc1ccc(OP(=O)(Oc2ccc(C)cc2)Oc2ccc(C)cc2)cc1.Cc1ccc(OP(=O)(Oc2ccc(C)cc2)Oc2ccc(C)cc2)cc1.Cc1ccc(OP(=O)(Oc2ccc(C)cc2)Oc2ccc(C)cc2)cc1.[Mn+2].[O-][Cl+3]([O-])([O-])O
inactive: dose: 10.0 mg/kg/injection, schedule: Q01DX001 (ip), vehicle: Klucel (hydroxypropylcellulose) (HPC) 101 % of control | dose: 20.0 mg/kg/injection, schedule: Q01DX001 (ip), vehicle: Klucel (hydroxypropylcellulose) (HPC) 94 % of control | dose: 40.0 mg/kg/injection, schedule: Q01DX001 (ip), vehicle: Klucel (hydroxypropylcellulose) (HPC) 99 % of control

CC1(C)N=C(N)N=C(N)N1c1ccc(CN)cc1
inactive: [1] 110 % of control | [2] 103 % of control | [3] 106 % of control

N#Cc1[nH]nc(N)c1C#N
inactive: dose: 100.0 mg/kg/injection, schedule: Q01DX001 (ip), vehicle: water 103 % of control | dose: 200.0 mg/kg/injection, schedule: Q01DX001 (ip), vehicle: water 103 % of control | dose: 400.0 mg/kg/injection, schedule: Q01DX001 (ip), vehicle: water 98 % of control

Cc1ccc(S(=O)(=O)OCC2COC(C(C)C)OC2)cc1 (stereo not given)
inactive: [4] 99 % of control | [5] 90 % of control | [6] 90 % of control

Cc1cc(C)c(N)c(Br)c1
inactive: dose: 6.25 mg/kg/injection, schedule: Q01DX009 (ip), vehicle: saline with Tween-80 118 % of control | dose: 12.5 mg/kg/injection, schedule: Q01DX009 (ip), vehicle: saline with Tween-80 113 % of control | dose: 12.5 mg/kg/injection, schedule: Q04DX003 (ip), vehicle: saline with Tween-80 100 % of control | dose: 25.0 mg/kg/injection, schedule: Q01DX009 (ip), vehicle: saline with Tween-80 100 % of control | dose: 25.0 mg/kg/injection, schedule: Q04DX003 (ip), vehicle: other 120 % of control | [7] 100 % of control | dose: 50.0 mg/kg/injection, schedule: Q04DX003 (ip), vehicle: other 120 % of control | [8] 95 % of control

CN1CNC(=S)NC1
inactive: [9] 105 % of control | [10] 102 % of control | [11] 101 % of control

O=CNc1c2ccccc2c(NC=O)c2ccccc12
inactive: dose: 50.0 mg/kg/injection, schedule: Q01DX005 (ip), vehicle: saline with Tween-80 92 % of control | dose: 100.0 mg/kg/injection, schedule: Q01DX005 (ip), vehicle: saline with Tween-80 88 % of control | dose: 200.0 mg/kg/injection, schedule: Q01DX005 (ip), vehicle: saline with Tween-80 101 % of control

Cc1cc2cc3c(C)cc(=O)oc3c(C)c2o1
inactive: [12] 118 % of control | [13] 112 % of control | dose: 400.0 mg/kg/injection, schedule: Q01DX009 (ip), vehicle: saline with Tween-80 102 % of control

CC(Nc1ccc(S(=O)(=O)Nc2ncccn2)cc1)c1ccc2cccnc2c1O (stereo not given)
inactive: dose: 100.0 mg/kg/injection, schedule: Q01DX001 (ip), vehicle: saline with Tween-80 94 % of control | dose: 200.0 mg/kg/injection, schedule: Q01DX001 (ip), vehicle: saline with Tween-80 98 % of control

CCOC(=O)/C=C/c1ccc(C(=O)OCC)[nH]1
inactive: dose: 25.0 mg/kg/injection, schedule: Q01DX009 (ip), vehicle: Klucel (hydroxypropylcellulose) (HPC) 101 % of control | [14] 100 % of control | [15] 107 % of control | [16] 97 % of control

COC1/C=C/OC2(C)Oc3c(C)c(O)c4c(O)c(c(/C=N/N5C(C)CN(Cc6ccc(O)cc6)CC5C)c(O)c4c3C2=O)NC(=O)C(C)=C/C=C/C(C)C(O)C(C)C(O)C(C)C(OC(C)=O)C1C (stereo not given)
inactive: dose: 50.0 mg/kg/injection, schedule: Q01DX009 (ip), vehicle: saline with Tween-80 95 % of control | [12] 99 % of control | [13] 96 % of control

C=C1COC(O)(C(OC)C(O)CC2CC(=O)NC(=O)C2)C1C (stereo not given)
inactive: dose: 0.01 mg/kg/injection, schedule: Q01DX009 (ip), vehicle: water 105 % of control | dose: 0.03 mg/kg/injection, schedule: Q01DX009 (ip), vehicle: water 104 % of control | dose: 0.06 mg/kg/injection, schedule: Q01DX009 (ip), vehicle: water 111 % of control | dose: 0.12 mg/kg/injection, schedule: Q01DX009 (ip), vehicle: water 117 % of control

CC(=O)Nc1ccc(S(=O)(=O)Nc2cccc3[nH]c(=O)oc23)cc1
inactive: dose: 50.0 mg/kg/injection, schedule: Q04DX002 (ip), vehicle: Klucel (hydroxypropylcellulose) (HPC) 98 % of control | dose: 100.0 mg/kg/injection, schedule: Q04DX002 (ip), vehicle: Klucel (hydroxypropylcellulose) (HPC) 95 % of control | dose: 200.0 mg/kg/injection, schedule: Q04DX002 (ip), vehicle: Klucel (hydroxypropylcellulose) (HPC) 92 % of control

Cc1cc(Cl)c2cc3c(cc2n1)CCCC3
inactive: [17] 102 % of control | [18] 109 % of control

C(=N/c1ccccn1)/c1ccc2c(c1)OCO2
inactive: [14] 100 % of control | [15] 105 % of control | [16] 101 % of control

CC[CH2][Sn]([Br])([Br])[CH2]CC
inactive: dose: 3.12 mg/kg/injection, schedule: Q04DX003 (ip), vehicle: saline 114 % of control | dose: 6.25 mg/kg/injection, schedule: Q04DX003 (ip), vehicle: saline 109 % of control

CNCCCCCc1cc(-c2ccc([N+](=O)[O-])cc2)n[nH]1
inactive: [7] 103 % of control | [8] 103 % of control | [19] 100 % of control and 94 % of control

CC(NC(=O)CN(C)C(=O)OCc1ccccc1)C(=O)O (stereo not given)
inactive: dose: 50.0 mg/kg/injection, schedule: Q01DX005 (ip), vehicle: saline 102 % of control | dose: 100.0 mg/kg/injection, schedule: Q01DX005 (ip), vehicle: saline 96 % of control | dose: 200.0 mg/kg/injection, schedule: Q01DX005 (ip), vehicle: saline 100 % of control

NC(=O)c1nnn(Cc2cc(Cl)c(C(=O)c3ccc(Cl)cc3)c(Cl)c2)c1N
inactive: [17] 103 % of control | [18] 103 % of control | dose: 240.0 mg/kg/injection, schedule: Q01DX005 (ip), vehicle: Klucel (hydroxypropylcellulose) (HPC) 115 % of control | dose: 480.0 mg/kg/injection, schedule: Q01DX005 (ip), vehicle: Klucel (hydroxypropylcellulose) (HPC) 119 % of control

CNC(=O)Oc1c(C)[nH]ccc1=O
inactive: dose: 400.0 mg/kg/injection, schedule: Q01DX009 (ip), vehicle: saline 107 % of control

COc1ccc(/C=C/Cc2cc3c(cc2OC)OCO3)cc1
inactive: [4] 104 % of control | [5] 93 % of control | [6] 90 % of control

COc1cccc(CSCC(=O)O)c1
inactive: [9] 97 % of control | [10] 102 % of control | [11] 92 % of control

CCCCOC(=O)C(C)OC(=O)Nc1cccc(Cl)c1 (stereo not given)
inactive: [19] 90 % of control | dose: 200.0 mg/kg/injection, schedule: Q04DX003 (ip), vehicle: saline with Tween-80 90 % of control | dose: 400.0 mg/kg/injection, schedule: Q04DX003 (ip), vehicle: saline with Tween-80 100 % of control
